Source: patent publication US20190307123A1, “KIT OF ATTRACTANTS FOR ATTRACTING THE COFFEE BERRY BORER” (INSTITUT NATIONAL DE LA RECHERCHE AGRONOMIQUE, priority 2016, published 2019)
“Also recorded” adds a separate entry of the source.

Key:
[1] = test system: coffee berry borer Hypothenemus hampei; test: Field trapping trials in Costa Rica (Brocap traps in arabica coffee plantation); type: in vivo; conditions: Costa Rica field tests; result in words
Protocol: The trials carried out above were supplemented in 2017 in Costa Rica, in a context of larger coffee berry borer populations. The trapping trials were carried out between Feb. 21 and Apr. 27, 2017, in the commercial arabica coffee plantations of the CATIE (Centro Agronómico Tropical de Investigación y Enseñanza) [The Tropical Agricultural Research and Higher Education Center] in Turrialba, Costa Rica. […] The Coffea arabica var. caturra plantations, located at approximately 600 meters of altitude, were planted in 2010 in combination with Erythrina poeppigiana as shade trees. The rows are oriented along the contour lines with a spacing of 80 cm between the plants and 2 meters between the rows (6300 plants/ha). All of the plots benefit from considerable annual maintenance: pluriannual weeding or chemical weed-killing between the rows, chemical fertilization during fruit formation, fungicide and optionally insecticide treatments in the event of coffee berry borer infestation. The yields therefrom are medium, about 1000 kg/ha/year of green bean coffee. Brocap® traps were placed directly in the coffee trees, suspended from the branches at a height of approximately 1 meter and with a spacing between the traps of approximately 20 meters. […] The number of coffee berry borers trapped was recorded daily. […]

[2] = test system: coffee berry borer Hypothenemus hampei; test: Field trapping trials in Brazil (Unitrap traps in arabica coffee plantation); type: in vivo; conditions: Brazil field tests, result in words
Protocol: The trapping trials were carried out between Jan. 8 and Mar. 31, 2016, during the fruit maturation phase, in an arabica coffee plantation conducted under biodynamic conditions in the municipality of […] Boa Vista, in the State of São Paulo in Brazil, at an altitude of 800 m. For each test, three plots received trials, each representing a random complete block. The Coffea arabica var. tupi plantations were set up at the beginning of the 2000s in combination with shade trees (Acacia mangium, Acacia auriculiformis, […] sepium, Leucaena leucocephala). The rows are oriented along the contour lines with a variable spacing according to the plots (0.6 to 0.75×3 to 3.6 meters), and the shade trees are planted at regular intervals in the rows of coffee trees. All of the plots benefit from considerable annual maintenance: regular cutting between the rows, organic fertilization and weeding during fruit formation, foliar fertilization during bean swelling and maturation. […] The traps (Pherobank Unitrap wing model) were placed directly in the coffee trees, suspended from the branches at a height of 1.20 meters or as high as possible when the plants were smaller. The spacing between the traps is approximately 20 meters. The products used were supplied by Sigma-Aldrich. They are: The products were placed in 2 ml glass vials, in which the opening of the septum allows free diffusion by evaporation. A first diffuser contained 0.5 ml of ethanol and 0.5 ml of methanol. A second diffuser contained, where appropriate, the terpenoids diluted in paraffin (0.5 ml of (-)-limonene or 0.5 ml of (+)-limonene, 0.5 ml of paraffin and where appropriate 0.1 ml of (-)-α-pinene). The number of coffee berry borers trapped was recorded daily, and the modes tested were modified each week which represents a test. Each recording in each block represents a repetition. Between each test, the traps were washed with a 2% TFD4 solution and the diffusers were changed.

CCCCC(CC)CO (racemic) [2-ethyl-1-hexanol, 2-Ethyl-1-hexanol]
Effect on number of borers trapped when combined with the ethanol/methanol mixture, compared with the ethanol/methanol mixture alone [1]: clearly increased; also recorded: makes it possible to increase the trappings

C=CC(C)(O)CCC=C(C)C (stereo not drawn) [linalool, reference compound]
Effect on number of borers trapped when combined with the ethanol/methanol mixture, compared with the alcohols alone [2]: virtually disappears

C=C(C)[C@H]1CC=C(C)CC1 [(+)-limonene, (R)-(+)-Limonene, reference compound]
Effect on number of borers trapped when combined with the ethanol/methanol mixture, compared with the alcohols alone [2]: did not make it possible to improve the captures
Effect on number of borers trapped when combined with the ethanol/methanol mixture, compared with the alcohols alone ([2]; listed as (+) enantiomer of limonene): does not increase the number of borers trapped

C=C(C)[C@@H]1CC=C(C)CC1 [(−)-limonene, (S)-(−)-Limonene]
Effect on number of borers trapped when combined with the ethanol/methanol mixture, compared with the alcohols alone [2]: improves the attractiveness; also recorded: significantly increased; also recorded: clearly increased
Effect on number of borers trapped when combined with the ethanol/methanol mixture, compared with the ethanol/methanol mixture alone [1]: clearly increased
